According to PMC9569420 (Communications Biology, 2022):

Tests used:
STK25/YSK1 = target: T1, STK25/YSK1 (Homo sapiens, UniProt O00506); experiment: HotSpot kinase assay; format: biochemical; conditions: read-out: % Enzyme Activity (relative to DMSO controls)
T1 construct: purchased Reaction Biology Corporation

RON/MST1R = target: T2, RON/MST1R (Homo sapiens, UniProt Q04912); experiment: HotSpot kinase assay; format: biochemical; conditions: read-out: % Enzyme Activity (relative to DMSO controls)
T2 construct: purchased Reaction Biology Corporation

PKCmu/PRKD1 = target: T3, PKCmu/PRKD1 (Homo sapiens, UniProt Q15139); experiment: HotSpot kinase assay; format: biochemical; conditions: read-out: % Enzyme Activity (relative to DMSO controls)
T3 construct: purchased Reaction Biology Corporation

TAOK3/JIK = target: T4, TAOK3/JIK (Homo sapiens, UniProt Q9H2K8); experiment: HotSpot kinase assay; format: biochemical; conditions: read-out: % Enzyme Activity (relative to DMSO controls)
T4 construct: purchased Reaction Biology Corporation

FGFR1 = target: T5, FGFR1 (Homo sapiens, UniProt P11362); experiment: HotSpot kinase assay; format: biochemical; conditions: read-out: % Enzyme Activity (relative to DMSO controls)
T5 construct: purchased Reaction Biology Corporation

FLT4/VEGFR3 = target: T6, FLT4/VEGFR3 (Homo sapiens, UniProt P35916); experiment: HotSpot kinase assay; format: biochemical; conditions: read-out: % Enzyme Activity (relative to DMSO controls)
T6 construct: purchased Reaction Biology Corporation

EEF2K = target: T7, EEF2K (Homo sapiens, UniProt O00418); experiment: HotSpot kinase assay; format: biochemical; conditions: read-out: % Enzyme Activity (relative to DMSO controls)
T7 construct: purchased Reaction Biology Corporation

EIF2AK2 = target: T8, EIF2AK2 (Homo sapiens, UniProt P19525); experiment: HotSpot kinase assay; format: biochemical; conditions: read-out: % Enzyme Activity (relative to DMSO controls)
T8 construct: purchased Reaction Biology Corporation

DYRK1B = target: T9, DYRK1B (Homo sapiens, UniProt Q9Y463); experiment: HotSpot kinase assay; format: biochemical; conditions: read-out: % Enzyme Activity (relative to DMSO controls)
T9 construct: purchased Reaction Biology Corporation

PAK6 = target: T10, PAK6 (Homo sapiens, UniProt Q9NQU5); experiment: HotSpot kinase assay; format: biochemical; conditions: read-out: % Enzyme Activity (relative to DMSO controls)
T10 construct: purchased Reaction Biology Corporation

MAK = target: T11, MAK (Homo sapiens, UniProt P20794); experiment: HotSpot kinase assay; format: biochemical; conditions: read-out: % Enzyme Activity (relative to DMSO controls)
T11 construct: purchased Reaction Biology Corporation

EPHA8 = target: T12, EPHA8 (Homo sapiens, UniProt P29322); experiment: HotSpot kinase assay; format: biochemical; conditions: read-out: % Enzyme Activity (relative to DMSO controls)
T12 construct: purchased Reaction Biology Corporation

PKCepsilon = target: T13, PKCepsilon (Homo sapiens, UniProt Q02156); experiment: HotSpot kinase assay; format: biochemical; conditions: read-out: % Enzyme Activity (relative to DMSO controls)
T13 construct: purchased Reaction Biology Corporation

PKCg = target: T14, PKCg (Homo sapiens, UniProt P05129); experiment: HotSpot kinase assay; format: biochemical; conditions: read-out: % Enzyme Activity (relative to DMSO controls)
T14 construct: purchased Reaction Biology Corporation

ULK2 = target: T15, ULK2 (Homo sapiens, UniProt Q8IYT8); experiment: HotSpot kinase assay; format: biochemical; conditions: read-out: % Enzyme Activity (relative to DMSO controls)
T15 construct: purchased Reaction Biology Corporation

CAMK4 = target: T16, CAMK4 (Homo sapiens, UniProt Q16566); experiment: HotSpot kinase assay; format: biochemical; conditions: read-out: % Enzyme Activity (relative to DMSO controls)
T16 construct: purchased Reaction Biology Corporation

FGFR3 = target: T17, FGFR3 (Homo sapiens, UniProt P22607); experiment: HotSpot kinase assay; format: biochemical; conditions: read-out: % Enzyme Activity (relative to DMSO controls)
T17 construct: purchased Reaction Biology Corporation

YES/YES1 = target: T18, YES/YES1 (Homo sapiens, UniProt P07947); experiment: HotSpot kinase assay; format: biochemical; conditions: read-out: % Enzyme Activity (relative to DMSO controls)
T18 construct: purchased Reaction Biology Corporation

CSK = target: T19, CSK (Homo sapiens, UniProt P41240); experiment: HotSpot kinase assay; format: biochemical; conditions: read-out: % Enzyme Activity (relative to DMSO controls)
T19 construct: purchased Reaction Biology Corporation

RSK3 = target: T20, RSK3 (Homo sapiens, UniProt Q15349); experiment: HotSpot kinase assay; format: biochemical; conditions: read-out: % Enzyme Activity (relative to DMSO controls)
T20 construct: purchased Reaction Biology Corporation

PAK3 = target: T21, PAK3 (Homo sapiens, UniProt O75914); experiment: HotSpot kinase assay; format: biochemical; conditions: read-out: % Enzyme Activity (relative to DMSO controls)
T21 construct: purchased Reaction Biology Corporation

CLK1 = target: T22, CLK1 (Homo sapiens, UniProt P49759); experiment: HotSpot kinase assay; format: biochemical; conditions: read-out: % Enzyme Activity (relative to DMSO controls)
T22 construct: purchased Reaction Biology Corporation

PKCd = target: T23, PKCd (Homo sapiens, UniProt Q05655); experiment: biochemical
T23 construct: purchased Reaction Biology Corporation

RIPK2 = target: T24, RIPK2 (Homo sapiens, UniProt O43353); experiment: HotSpot kinase assay; format: biochemical; conditions: read-out: % Enzyme Activity (relative to DMSO controls)
T24 construct: purchased Reaction Biology Corporation

HCK = target: T25, HCK (Homo sapiens, UniProt P08631); experiment: HotSpot kinase assay; format: biochemical; conditions: read-out: % Enzyme Activity (relative to DMSO controls)
T25 construct: purchased Reaction Biology Corporation

MNK2 = target: T26, MNK2 (Homo sapiens, UniProt Q9HBH9); experiment: HotSpot kinase assay; format: biochemical; conditions: read-out: % Enzyme Activity (relative to DMSO controls)
T26 construct: purchased Reaction Biology Corporation

CLK4 = target: T27, CLK4 (Homo sapiens, UniProt Q9HAZ1); experiment: HotSpot kinase assay; format: biochemical; conditions: read-out: % Enzyme Activity (relative to DMSO controls)
T27 construct: purchased Reaction Biology Corporation

CDK3/cyclin E2 = target: T28, CDK3/cyclin E2 (Homo sapiens, UniProt Q00526); experiment: HotSpot kinase assay; format: biochemical; conditions: read-out: % Enzyme Activity (relative to DMSO controls)
T28 construct: purchased Reaction Biology Corporation

p70S6K/RPS6KB1 = target: T29, p70S6K/RPS6KB1 (Homo sapiens, UniProt P23443); experiment: HotSpot kinase assay; format: biochemical; conditions: read-out: % Enzyme Activity (relative to DMSO controls)
T29 construct: purchased Reaction Biology Corporation

CDK2/cyclin A1 = target: T30, CDK2/cyclin A1 (Homo sapiens, UniProt P24941); experiment: HotSpot kinase assay; format: biochemical; conditions: read-out: % Enzyme Activity (relative to DMSO controls)
T30 construct: purchased Reaction Biology Corporation

AXL = target: T31, AXL (Homo sapiens, UniProt P30530); experiment: HotSpot kinase assay; format: biochemical; conditions: read-out: % Enzyme Activity (relative to DMSO controls)
T31 construct: purchased Reaction Biology Corporation

LATS2 = target: T32, LATS2 (Homo sapiens, UniProt Q9NRM7); experiment: HotSpot kinase assay; format: biochemical; conditions: read-out: % Enzyme Activity (relative to DMSO controls)
T32 construct: purchased Reaction Biology Corporation

PDGFRa = target: T33, PDGFRa (Homo sapiens, UniProt P16234); experiment: HotSpot kinase assay; format: biochemical; conditions: read-out: % Enzyme Activity (relative to DMSO controls)
T33 construct: purchased Reaction Biology Corporation

ERBB2/HER2 = target: T34, ERBB2/HER2 (Homo sapiens, UniProt P04626); experiment: biochemical; conditions: read-out: % Enzyme Activity (relative to DMSO controls)
T34 construct: purchased Reaction Biology Corporation

SYK = target: T35, SYK (Homo sapiens, UniProt P43405); experiment: HotSpot kinase assay; format: biochemical; conditions: read-out: % Enzyme Activity (relative to DMSO controls)
T35 construct: purchased Reaction Biology Corporation

DRAK1/STK17A = target: T36, DRAK1/STK17A (Homo sapiens, UniProt Q9UEE5); experiment: HotSpot kinase assay; format: biochemical; conditions: read-out: % Enzyme Activity (relative to DMSO controls)
T36 construct: purchased Reaction Biology Corporation

MAST3 = target: T37, MAST3 (Homo sapiens, UniProt O60307); experiment: HotSpot kinase assay; format: biochemical; conditions: read-out: % Enzyme Activity (relative to DMSO controls)
T37 construct: purchased Reaction Biology Corporation

ACK1 = target: T38, ACK1 (Homo sapiens, UniProt Q07912); experiment: HotSpot kinase assay; format: biochemical; conditions: read-out: % Enzyme Activity (relative to DMSO controls)
T38 construct: purchased Reaction Biology Corporation

CAMK1g = target: T39, CAMK1g (Homo sapiens, UniProt Q96NX5); experiment: HotSpot kinase assay; format: biochemical; conditions: read-out: % Enzyme Activity (relative to DMSO controls)
T39 construct: purchased Reaction Biology Corporation

TAOK1 = target: T40, TAOK1 (Homo sapiens, UniProt Q7L7X3); experiment: HotSpot kinase assay; format: biochemical; conditions: read-out: % Enzyme Activity (relative to DMSO controls)
T40 construct: purchased Reaction Biology Corporation

TSSK2 = target: T41, TSSK2 (Homo sapiens, UniProt Q96PF2); experiment: HotSpot kinase assay; format: biochemical; conditions: read-out: % Enzyme Activity (relative to DMSO controls)
T41 construct: purchased Reaction Biology Corporation

EPHA4 = target: T42, EPHA4 (Homo sapiens, UniProt P54764); experiment: HotSpot kinase assay; format: biochemical; conditions: read-out: % Enzyme Activity (relative to DMSO controls)
T42 construct: purchased Reaction Biology Corporation

STK16 = target: T43, STK16 (Homo sapiens, UniProt O75716); experiment: HotSpot kinase assay; format: biochemical; conditions: read-out: % Enzyme Activity (relative to DMSO controls)
T43 construct: purchased Reaction Biology Corporation

T23 sequence (Q05655 whole entry): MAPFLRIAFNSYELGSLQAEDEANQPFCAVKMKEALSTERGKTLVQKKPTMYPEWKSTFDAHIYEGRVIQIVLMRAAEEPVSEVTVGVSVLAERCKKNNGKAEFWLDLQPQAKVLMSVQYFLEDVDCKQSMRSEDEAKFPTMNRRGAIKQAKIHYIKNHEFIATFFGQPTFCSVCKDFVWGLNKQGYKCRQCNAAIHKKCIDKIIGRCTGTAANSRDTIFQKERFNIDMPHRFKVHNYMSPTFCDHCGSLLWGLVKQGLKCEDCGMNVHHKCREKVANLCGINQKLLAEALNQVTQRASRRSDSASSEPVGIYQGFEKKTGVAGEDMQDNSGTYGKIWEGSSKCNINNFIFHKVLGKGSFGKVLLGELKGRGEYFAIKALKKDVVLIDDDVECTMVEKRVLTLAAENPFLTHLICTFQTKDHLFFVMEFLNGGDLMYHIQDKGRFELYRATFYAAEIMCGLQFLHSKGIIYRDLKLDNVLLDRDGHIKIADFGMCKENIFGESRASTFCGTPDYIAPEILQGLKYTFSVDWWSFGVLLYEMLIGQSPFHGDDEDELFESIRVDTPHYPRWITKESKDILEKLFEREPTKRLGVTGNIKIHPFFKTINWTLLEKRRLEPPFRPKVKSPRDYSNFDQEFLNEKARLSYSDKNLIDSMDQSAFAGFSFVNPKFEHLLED
T31 sequence (P30530 26-894): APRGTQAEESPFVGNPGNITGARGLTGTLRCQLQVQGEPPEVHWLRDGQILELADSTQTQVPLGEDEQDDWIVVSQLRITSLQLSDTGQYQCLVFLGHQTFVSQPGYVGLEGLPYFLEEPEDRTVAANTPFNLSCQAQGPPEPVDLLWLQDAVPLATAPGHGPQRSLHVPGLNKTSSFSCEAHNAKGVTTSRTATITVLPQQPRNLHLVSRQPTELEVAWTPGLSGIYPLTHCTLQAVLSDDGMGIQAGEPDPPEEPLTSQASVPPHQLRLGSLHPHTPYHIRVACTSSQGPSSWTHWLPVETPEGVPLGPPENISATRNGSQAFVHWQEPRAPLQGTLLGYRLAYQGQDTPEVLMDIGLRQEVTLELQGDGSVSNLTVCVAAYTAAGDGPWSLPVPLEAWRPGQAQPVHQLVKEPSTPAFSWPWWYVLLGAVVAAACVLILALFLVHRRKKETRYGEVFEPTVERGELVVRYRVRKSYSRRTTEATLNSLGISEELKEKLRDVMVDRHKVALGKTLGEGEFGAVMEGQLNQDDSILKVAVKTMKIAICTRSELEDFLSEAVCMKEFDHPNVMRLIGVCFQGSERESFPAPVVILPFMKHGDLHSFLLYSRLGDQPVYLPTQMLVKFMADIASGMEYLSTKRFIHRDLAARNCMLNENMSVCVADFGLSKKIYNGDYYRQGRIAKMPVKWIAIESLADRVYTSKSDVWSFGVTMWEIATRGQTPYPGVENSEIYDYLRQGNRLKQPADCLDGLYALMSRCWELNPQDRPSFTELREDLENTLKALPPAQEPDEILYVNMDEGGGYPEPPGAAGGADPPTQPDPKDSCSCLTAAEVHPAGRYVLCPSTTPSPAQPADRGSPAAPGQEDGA
T28 sequence (Q00526 whole entry): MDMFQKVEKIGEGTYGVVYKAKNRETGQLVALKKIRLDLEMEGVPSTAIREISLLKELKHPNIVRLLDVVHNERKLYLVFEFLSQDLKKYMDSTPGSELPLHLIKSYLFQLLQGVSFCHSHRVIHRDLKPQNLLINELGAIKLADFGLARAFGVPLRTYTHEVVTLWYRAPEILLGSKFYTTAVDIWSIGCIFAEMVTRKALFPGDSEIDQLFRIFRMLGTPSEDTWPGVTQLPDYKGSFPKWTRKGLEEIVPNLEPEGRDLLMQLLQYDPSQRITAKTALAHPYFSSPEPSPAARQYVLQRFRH
T28 sequence (O96020 whole entry partner): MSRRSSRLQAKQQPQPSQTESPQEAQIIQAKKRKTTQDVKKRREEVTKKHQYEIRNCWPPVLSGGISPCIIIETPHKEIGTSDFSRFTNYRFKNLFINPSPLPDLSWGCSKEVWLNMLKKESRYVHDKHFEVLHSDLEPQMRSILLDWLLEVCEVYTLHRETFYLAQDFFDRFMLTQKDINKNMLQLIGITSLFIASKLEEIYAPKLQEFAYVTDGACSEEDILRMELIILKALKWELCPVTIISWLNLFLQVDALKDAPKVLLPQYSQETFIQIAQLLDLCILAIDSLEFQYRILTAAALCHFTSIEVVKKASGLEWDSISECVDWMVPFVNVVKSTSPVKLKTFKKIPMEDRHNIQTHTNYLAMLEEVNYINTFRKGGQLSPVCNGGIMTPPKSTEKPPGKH
T18 sequence (P07947 whole entry): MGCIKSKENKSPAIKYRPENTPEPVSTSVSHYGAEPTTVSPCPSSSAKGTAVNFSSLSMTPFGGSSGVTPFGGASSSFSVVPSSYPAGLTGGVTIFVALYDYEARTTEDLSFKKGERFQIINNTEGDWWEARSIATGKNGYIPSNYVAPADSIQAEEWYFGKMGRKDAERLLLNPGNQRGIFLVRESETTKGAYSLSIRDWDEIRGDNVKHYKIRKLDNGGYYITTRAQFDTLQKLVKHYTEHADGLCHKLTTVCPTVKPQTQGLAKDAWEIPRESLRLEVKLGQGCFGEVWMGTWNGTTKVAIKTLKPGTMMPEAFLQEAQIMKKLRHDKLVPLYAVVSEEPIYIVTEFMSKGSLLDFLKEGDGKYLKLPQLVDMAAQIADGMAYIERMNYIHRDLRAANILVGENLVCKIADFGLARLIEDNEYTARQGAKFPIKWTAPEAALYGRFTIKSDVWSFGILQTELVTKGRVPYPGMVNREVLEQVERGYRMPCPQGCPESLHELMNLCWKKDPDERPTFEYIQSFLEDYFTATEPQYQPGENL
T33 sequence (P16234 24-1089): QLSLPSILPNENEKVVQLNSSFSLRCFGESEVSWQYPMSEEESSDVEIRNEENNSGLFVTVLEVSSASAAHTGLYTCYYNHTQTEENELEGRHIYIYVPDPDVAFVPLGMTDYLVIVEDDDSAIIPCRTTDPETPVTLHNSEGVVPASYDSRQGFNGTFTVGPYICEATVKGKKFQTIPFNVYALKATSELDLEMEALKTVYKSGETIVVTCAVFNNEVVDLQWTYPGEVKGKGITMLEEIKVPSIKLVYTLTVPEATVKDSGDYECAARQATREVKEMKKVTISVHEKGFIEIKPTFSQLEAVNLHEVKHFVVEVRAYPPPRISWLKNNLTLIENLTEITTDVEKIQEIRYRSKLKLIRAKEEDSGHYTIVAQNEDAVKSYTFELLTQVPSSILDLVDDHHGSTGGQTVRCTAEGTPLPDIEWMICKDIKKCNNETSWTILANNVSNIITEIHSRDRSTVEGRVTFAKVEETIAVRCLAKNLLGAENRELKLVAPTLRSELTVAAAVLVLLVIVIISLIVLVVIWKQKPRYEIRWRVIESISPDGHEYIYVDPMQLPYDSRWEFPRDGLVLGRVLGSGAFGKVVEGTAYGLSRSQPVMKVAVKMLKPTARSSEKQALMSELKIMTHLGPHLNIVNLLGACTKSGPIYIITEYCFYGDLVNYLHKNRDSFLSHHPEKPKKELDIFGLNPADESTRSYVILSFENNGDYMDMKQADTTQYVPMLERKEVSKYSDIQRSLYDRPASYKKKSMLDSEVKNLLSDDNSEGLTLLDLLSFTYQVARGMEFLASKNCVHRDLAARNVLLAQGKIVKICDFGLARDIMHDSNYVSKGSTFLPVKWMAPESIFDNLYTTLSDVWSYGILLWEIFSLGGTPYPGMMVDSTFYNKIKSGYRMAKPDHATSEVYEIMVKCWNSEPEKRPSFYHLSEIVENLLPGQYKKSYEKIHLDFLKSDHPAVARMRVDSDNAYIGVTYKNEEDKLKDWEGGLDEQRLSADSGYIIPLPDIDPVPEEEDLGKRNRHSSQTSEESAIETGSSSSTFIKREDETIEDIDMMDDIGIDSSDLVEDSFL
T5 sequence (P11362 22-822): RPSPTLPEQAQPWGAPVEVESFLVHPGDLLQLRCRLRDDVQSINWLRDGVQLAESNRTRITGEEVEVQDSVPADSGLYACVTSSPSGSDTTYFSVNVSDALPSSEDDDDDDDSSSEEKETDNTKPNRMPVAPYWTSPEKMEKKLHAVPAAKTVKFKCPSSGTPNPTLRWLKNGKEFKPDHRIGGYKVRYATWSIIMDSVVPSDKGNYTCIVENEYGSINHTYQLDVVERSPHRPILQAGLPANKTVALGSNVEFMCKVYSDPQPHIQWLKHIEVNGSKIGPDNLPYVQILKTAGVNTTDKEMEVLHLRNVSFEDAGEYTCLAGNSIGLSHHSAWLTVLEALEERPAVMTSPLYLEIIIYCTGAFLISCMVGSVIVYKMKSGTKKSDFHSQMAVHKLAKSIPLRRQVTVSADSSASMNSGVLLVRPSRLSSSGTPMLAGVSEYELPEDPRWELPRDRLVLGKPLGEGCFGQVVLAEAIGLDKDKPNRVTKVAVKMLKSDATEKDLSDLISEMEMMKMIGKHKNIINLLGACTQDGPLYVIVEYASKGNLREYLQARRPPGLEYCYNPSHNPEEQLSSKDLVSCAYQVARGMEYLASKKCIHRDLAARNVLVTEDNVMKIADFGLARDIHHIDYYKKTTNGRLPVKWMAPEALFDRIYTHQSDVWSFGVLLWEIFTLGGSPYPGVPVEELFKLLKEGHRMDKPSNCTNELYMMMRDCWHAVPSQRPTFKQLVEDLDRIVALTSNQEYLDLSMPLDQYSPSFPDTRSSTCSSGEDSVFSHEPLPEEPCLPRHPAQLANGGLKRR
T41 sequence (Q96PF2 whole entry): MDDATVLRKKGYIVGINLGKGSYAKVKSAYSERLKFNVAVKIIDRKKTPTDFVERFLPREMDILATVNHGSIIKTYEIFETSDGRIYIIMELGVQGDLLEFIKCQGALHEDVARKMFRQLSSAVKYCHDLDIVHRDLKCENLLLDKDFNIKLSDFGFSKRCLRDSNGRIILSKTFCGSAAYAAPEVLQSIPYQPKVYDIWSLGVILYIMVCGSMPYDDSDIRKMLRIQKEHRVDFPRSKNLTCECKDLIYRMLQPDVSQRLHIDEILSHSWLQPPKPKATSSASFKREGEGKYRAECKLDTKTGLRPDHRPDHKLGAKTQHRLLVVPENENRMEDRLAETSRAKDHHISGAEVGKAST

With `CO[C@@H]1[C@H](N(C)C(=O)CCC(=O)NCc2cn(CCCS(=O)(=O)O)nn2)C[C@H]2O[C@]1(C)n1c3ccccc3c3c4c(c5c6ccccc6n2c5c31)C(=O)NC4` [CIMSS] the remaining activity at 10 µM (STK25/YSK1) was 4.17%, the remaining activity at 10 µM (RON/MST1R) was 25.1% and the remaining activity at 10 µM (PKCmu/PRKD1) was 30.3%. The remaining activity at 10 µM (TAOK3/JIK) was 12.8%, the remaining activity at 10 µM (FGFR1) was 6.31% and the remaining activity at 10 µM (FLT4/VEGFR3) was 1.97%. It also gave a remaining activity at 10 µM (EEF2K) of 99.5%, a remaining activity at 10 µM (EIF2AK2) of 9.89% and a remaining activity at 10 µM (DYRK1B) of 0.41%. It also gave a remaining activity at 10 µM (PAK6) of 9.79%, a remaining activity at 10 µM (MAK) of 13.2% and a remaining activity at 10 µM (EPHA8) of 70.1%. The remaining activity at 10 µM (PKCepsilon) was 1.11%, the remaining activity at 10 µM (PKCg) was 1.77% and the remaining activity at 10 µM (ULK2) was 13.6%. For the same compound, the remaining activity at 10 µM (CAMK4) was 66.6%, the remaining activity at 10 µM (FGFR3) was 4.66% and the remaining activity at 10 µM (YES/YES1) was 1.4%. It also gave a remaining activity at 10 µM (CSK) of 2.41%, a remaining activity at 10 µM (RSK3) of 3.38% and a remaining activity at 10 µM (PAK3) of 6.48%. The remaining activity at 10 µM (CLK1) was 4.05%, the IC50 (PKCd; Supplementary Table 1, read-out: IC50 (Molar concentration)) was 3.64 nM and the remaining activity at 10 µM (PKCd; read-out: % Enzyme Activity (relative to DMSO controls), 10µM) was 8.64%. The remaining activity at 10 µM (RIPK2) was 41.7%, the remaining activity at 10 µM (HCK) was 7.23% and the remaining activity at 10 µM (MNK2) was 4.79%. The remaining activity at 10 µM (CLK4) was 10.4%, the remaining activity at 10 µM (CDK3/cyclin E2) was 22.3% and the remaining activity at 10 µM (p70S6K/RPS6KB1) was 5.46%. For the same compound, the remaining activity at 10 µM (CDK2/cyclin A1) was 7.95%, the remaining activity at 10 µM (AXL) was 3.61% and the remaining activity at 10 µM (LATS2) was 6.54%. For the same compound, the remaining activity at 10 µM (PDGFRa) was 6.05%, the remaining activity at 10 µM (ERBB2/HER2) was 35.9% and the remaining activity at 10 µM (SYK) was 0.87%. The remaining activity at 10 µM (DRAK1/STK17A) was 18.2%, the remaining activity at 10 µM (MAST3) was 106% and the remaining activity at 10 µM (ACK1) was 7.33%. The remaining activity at 10 µM (CAMK1g) was 8.97%, the remaining activity at 10 µM (TAOK1) was 6.83% and the remaining activity at 10 µM (TSSK2) was 21.2%. For the same compound, the remaining activity at 10 µM (EPHA4) was 30.5% and the remaining activity at 10 µM (STK16) was 10.2%.
